Entries after “also recorded” stand apart in the source; their conditions may differ.
Assays:
corn seeds = assay: Seed treatment testing: survival/germination of treated corn seeds (FIG. 2B); format: in vivo; settings: seeds coated with compound; 1 week after introduction of larvae
Description: (§1) Corn seeds used were a non-transgenic type strain of corn to prevent confounding results. Germination typically occurred between 2-4 days after moistening.
(§2) Seed coating was accomplished by placing 20 g of corn seeds or soybeans into a container with approximately 1 mL of a 1:5 Elmer's glue:water solution with a small amount of Triton-X100™ (present 100 μL/5 mL). For solid compounds, 0.25 g of compound was subsequently introduced into the container. This mixture of seeds, Elmer's Glue/water/Triton-X 100™ solution, and active compound was mixed thoroughly until seeds were coated with the active ingredient.
(§3) For each treatment, 0.25 g of liquid compound was dissolved in 5 mL of hexane. 0.25 g of Hi-Sil 233 silica gel was introduced into this mixture of hexane and active ingredient. The solvent was blown-off using a rotary evaporator, allowing for the compound to adsorb to the silica gel. This 0.5 g of silica gel:active ingredient was then used as the solid material used for coating the seeds. The seeds were then coated with the same method used for solid compound.
(§4) Three corn seeds coated in pogostone derivative treatments were germinated in small, 2-oz. […] Germination of seedlings was also recorded at the end of the assay by counting the total number of seeds that produced roots out of the 3 seeds in each container/replicate and recorded as total percentage germination. […]

soybean aphids = assay: Leaf spray/dip test, soybean aphids (FIG. 4a); format: in vivo, soybean aphid; settings: soybean aphids on dipped soybean leaves, 48 hours
Description: Soybean leaves were removed from a previously uninfested plant and dipped in solution containing water, various concentrations of compounds to be screened, and 0.5% industrial emulsifier. Leaves were allowed to air dry for 30 minutes before the beginning of the assay to assure excess formulation was not present on the treated leaves. Ten two-spotted spider mites or ten soybean aphid adults were gently placed on the top surface of the treated leaves. A minimum of three replicates were performed for each formulation tested in this experiment. Mortality of aphids or spider mites was recorded at 48 hours after their introduction to treated leaves. All treatments were compared to a water+emulsifier control and a thymol+emulsifier control. Data was presented as the average mortality across all replicates along with the standard error of the mean.

[1] = test system: 3-4 instar Aedes aegypti larvae; assay: Mosquito larvicide bioassay; format: in vivo
Description: Mosquito larvicide bioassays were performed by introducing various concentrations of test compounds (pyrone derivatives and rotenone) into acetone at various concentrations. 200 uL of these solutions were added to individual cups containing 10, 3-4 instar Aedes aegypti larvae and 25 mL of DI water. 2 mg of Tetramin™ was provided to each cup as a food source. […] Ataxia was used as the indicator of larval mortality. At least 5 concentrations were used which caused between 10 and 90% mortality. LC50 values were calculated using a PROC PROBIT model in SAS 9.4.

house flies = assay: Spray-cup testing, house flies (FIG. 3a); format: in vivo, house fly; settings: Formula 13 2.5% w/v in water vs thymol 2.5% or 10% w/v
Description: 10 adults of various arthropod species used for this characterization were placed into 8 oz. ice cream cups with tulle placed over the top to prevent the escape of arthropods from the container. Test formulations were added to spray bottles ([…]™) and applied at the same distance and spray number to eliminate variation between manufacturer spray bottles. For all experiments, spray bottles were set to mist in order to prevent excess formulation from accumulating in the cups. […] Mortality was recorded at 1 min, 5 min, 10 min, 15 min, 30 min, 4 hours, and 8 hours for each replicate. A minimum of 3 replicates of 10 arthropods/cup/replicate were performed for each formulation. Data was modeled using a logarithmic regression to show the speed-to-kill of each formulation and highlight differences among treatment groups. Different spray amounts were used for each arthropod, depending on susceptibility, e.g.:
House flies=8 sprays, 3 in […]

[2] = test system: Dandelion (Taraxacum officinale); assay: Soil drench herbicidal test, dandelion; format: in vivo; settings: 40 mL of 0.5% soil drench, FIG. 12; words
Description: Dandelion (Taraxacum officinale) seeds were obtained from the Department of Agronomy at Iowa State University. Individual seeds were sown for each pot (6″ wide×4.5″ deep) with approximately 800 mL of soil for each plan. Only plants that germinated were used for the study. Plants were treated 1-2 weeks post emergence. Plants were watered every 2-3 days as needed. Giant foxtail (Setaria faberi) seeds were obtained from the Department of Agronomy at Iowa State University. Three seeds were sown for each pot (6″ wide×4.5″ deep) with approximately 800 mL of soil for each plan. Only plants that germinated were used for the study. Plants were treated 1-2 weeks post emergence. Plants were watered every 2-3 days as needed.
Formulations of the various active ingredients were created using the disclosed pogostone derivatives and Triton-X 100 to aid in the solvation of the active ingredient. Formulations consisted of 0.5% active ingredient by weight. […] 40 mL of formulation ([…] active ingredient) was applied to each pot containing approximately 3-5 plants per pot at 2-3 weeks after emergence. Observations were performed 3 days and 2 weeks after soil drench to determine the effects of the treatments on the various types and stages of plants. […]

[3] = test system: two-spotted spider mites, soybean aphids, maize weevils, German cockroaches, and European corn borers; assay: Screen of Formula 13 against other arthropod pest species; format: in vivo; settings: words
[4] = test system: Western corn rootworm larvae; assay: Seed treatment testing: rootworm survival (FIG. 2A); format: in vivo; settings: seeds coated with compound; 1 week after introduction of larvae
Description: as §1, §2, §3, §4

[5] = test system: Pyrethroid-resistant strain of Aedes aegypti (Puerto Rican strain); assay: Toxicity to insecticide-resistant mosquitoes (FIG. 1); settings: dose response curves FIG. 1

## CC(C)CCC(=O)c1c(O)c2ccccc2oc1=O [Formula 13]
Corn seeds
  phytotoxicity to treated corn seeds: did not; also recorded: do not cause phytotoxicity
Soybean aphids
  mortality compared with thymol or control: performed better than thymol; also recorded: significantly more effective at killing soybean aphids compared to thymol or a control
[1]; Aedes aegypti, larval mortality at 24 hours, in 25 mL DI water, read-out: LC50
  LC50: 1.34 mg/L
[1]; words
  larvicidal properties compared with natural pogostone or rotenone: possessed better larvicidal properties than natural pogostone; also recorded: possessed better larvicidal properties than rotenone; also recorded: performed as well as the rotenone
House flies
  efficacy (mortality) compared with thymol: outperformed thymol at all time points; also recorded: surpassed the efficacy of thymol at both an equal or higher concentration
[2]
  phytotoxicity in dandelion: little phytotoxicity
[3]
  toxicity compared with thymol: more toxic than a commonly used natural insecticide, thymol
[4]
  western corn rootworm mortality: significant western corn rootworm mortality
[5]
  insecticidal capacity compared with natural pyrethrins: outperformed natural pyrethrins

Reference: US20200024246A1, “POGOSTONE DERIVATIVES AND METHODS OF USING THE SAME” (Hamyard Associates LLC, priority 2018, published 2020)
